The target in the experiment is PCSK9 (Homo sapiens, UniProt Q8NBP7). Briefly: Assay 2 Biophysical human PCSK9 assay (SPR, Biacore). The experiment is classed as binding. Details: biotinylated human PCSK9 (31-692)-Avi-His6; His6 (C). The following applies: single-cycle kinetics, 30° C., geometric mean, read-out: Assay 2 (PCSK9 BIAcore DBA Cr) GMean Kd. The method, then:
The SPR binding experiments were performed on a Biacore S200 optical biosensor unit at 30° C. A Series S Sensor Chip SA that is designed to bind biotinylated molecules for interaction analysis in Biacore systems was equilibrated at room temperature prior to use. The running buffer for protein tethering and subsequent ligand binding experiments was 10 mM HEPES pH 7.4, 150 mM NaCl, 0.05% (v/v) Tween 20 pH 7.4.
For the surface tethering of PCSK9, biotinylated human PCSK9 (31-692)-Avi-His6 at a concentration of 0.5 mg/mL was used. Prior to the surface tethering, the surface was exposed to a solution of 50 mM NaOH, 500 mM NaCl via 3 consecutive injections of this solution with a contact time of 60 s and a flowrate of 10 μL min^−1 to remove non-conjugated streptavidin. The PCSK9 protein was diluted to a concentration of 20 μg/mL using running buffer and injected with a contact time of 180-300 s and a flowrate of 10 μL min^−1 over a single flow channel (typically flow channel 2 or flow channel 4) with the aim to achieve protein capture levels of >5000 response units (RU). Remaining biotin binding sites were blocked via 2 consecutive injections of a 10 μM D-biotin solution in running buffer with a contact time of 60 s and a flowrate of 10 μL min^−1 over all flow-channels. Flow-channels 1 and 3 typically served as a reference surface throughout the subsequent binding experiments.
The binding experiments were all performed at a flow rate of 30 PL min^−1 and by employing the method of single-cycle kinetics. This approach involves the sequential injection of a compound concentration series without regeneration steps. A contact time between 90-150 s was selected, which was followed by a 40 min dissociation phase to allow for a proper estimation of the dissociation rate constant. Test compounds were delivered in DMSO at a concentration of 10 mM and a digital dispenser HP D300 was used to set up the compound concentration series using 6 concentrations. The tested concentrations have been 30, 100, 300, 1000, 3000 and 10000 nM. Prior to injecting any compound, the surfaces were equilibrated by injecting running buffer over them in three separate pulses. The data collection rate was set to 10 Hz.
The raw sensorgrams of the compound injections were first subjected to reference subtraction (subtracting the signal from flow channel 1 and/or 3 from the signal from channels 2 and/or 4 respectively) and then blank subtraction (subtracting the signal from injecting DMSO controls from the reference subtracted data). The resulting double-referenced sensorgrams were then fitted using a 1:1 binding interaction model using the manufactures software package to extract kinetic- and affinity data. Active compounds have been defined by creating a detectable binding signal at the highest compound concentration ([…]) of 3 RUs. Kinetic- and affinity data on active compounds are only provided for those compounds where the binding signal at the highest compound concentration ([…]) is 50% of the theoretical maximum binding signal for a 1:1 binding interaction (Rmax, typically between 15-20 RUs) in order to enable a proper fitting of the data.
On the technique in general: In SPR one partner is held on a chip, and binding of the other changes the refractive index at the surface.

PCSK9, sequence (Q8NBP7 31-692): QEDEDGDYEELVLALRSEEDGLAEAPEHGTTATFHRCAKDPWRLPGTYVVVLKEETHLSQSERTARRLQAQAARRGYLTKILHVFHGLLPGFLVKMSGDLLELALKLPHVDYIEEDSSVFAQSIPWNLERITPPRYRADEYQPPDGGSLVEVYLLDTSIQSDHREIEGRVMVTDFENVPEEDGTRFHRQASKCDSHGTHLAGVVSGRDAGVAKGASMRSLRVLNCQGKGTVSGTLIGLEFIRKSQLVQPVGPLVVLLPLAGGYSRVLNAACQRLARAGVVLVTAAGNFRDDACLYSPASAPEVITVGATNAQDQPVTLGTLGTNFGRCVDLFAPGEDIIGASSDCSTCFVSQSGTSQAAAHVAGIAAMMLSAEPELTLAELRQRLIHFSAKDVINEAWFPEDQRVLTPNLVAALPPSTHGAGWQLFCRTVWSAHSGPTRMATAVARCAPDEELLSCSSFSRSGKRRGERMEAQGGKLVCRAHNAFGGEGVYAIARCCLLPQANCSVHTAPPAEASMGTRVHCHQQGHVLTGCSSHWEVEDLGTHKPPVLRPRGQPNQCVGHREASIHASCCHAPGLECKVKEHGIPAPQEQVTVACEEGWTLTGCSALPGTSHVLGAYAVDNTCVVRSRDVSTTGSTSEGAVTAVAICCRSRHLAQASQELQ

As for `Cc1cnc(N[C@H]2CC[C@H](Nc3ccc(-n4cccc(OC(F)F)c4=O)cn3)C2)nn1` [Example 187, 3-(Difluoromethoxy)-6′-(((1S,3S)-3-((6-methyl-1,2,4-triazin-3-yl)amino)cyclopentyl)amino)-2H-[1,3′-bipyridin]-2-one], the Kd (commonly the equilibrium constant for the complex coming apart) was 3.7 nM.
As for `CNC(=O)c1cnc(N[C@H]2CC[C@H](Nc3ccc(-n4ccccc4=O)cn3)C2)nn1` [Example 75, N-Methyl-3-(((1S,3S)-3-((2-oxo-2H-[1,3′-bipyridin]-6′-yl)amino)cyclopentyl)amino)-1,2,4-triazine-6-carboxamide], the figure is 16 nM; as for `COc1ccc(=O)n(-c2ccc(N[C@H]3CC[C@H](Nc4ncc(C)nn4)C3)nc2)c1` [Example 133, 5-Methoxy-6′-(((1S,3S)-3-((6-methyl-1,2,4-triazin-3-yl)amino)cyclopentyl)amino)-2H-[1,3′-bipyridin]-2-one], 17 nM.
The result for `Cc1cnc(N[C@H]2CC[C@H](Nc3ccc(-n4c(=O)n(C)c5cccnc54)cn3)C2)nn1` [Example 212, 1-Methyl-3-(6-(((1S,3S)-3-((6-methyl-1,2,4-triazin-3-yl)amino)cyclopentyl)amino)pyridin-3-yl)-1,3-dihydro-2H-imidazo[4,5-b]pyridin-2-one] reads 1.7 nM; that for `COc1ccc(=O)n(-c2ccc(N[C@H]3CC[C@H](Nc4ncc(C5CC5)nn4)C3)nc2)c1` [Example 65, 6′-(((1S,3S)-3-((6-Cyclopropyl-1,2,4-triazin-3-yl)amino)cyclopentyl)amino)-5-methoxy-2H-[1,3′-bipyridin]-2-one], 5.8 nM; that for `CN1CC(=O)N(c2ccc(N[C@H]3CC[C@H](Nc4ncc(C5CC5)nn4)C3)nc2)C1=O` [Example 57, 3-(6-(((1S,3S)-3-((6-Cyclopropyl-1,2,4-triazin-3-yl)amino)cyclopentyl)amino)pyridin-3-yl)-1-methylimidazolidine-2,4-dione], 7.5 nM.
In the case of `Cc1cnc(N[C@H]2CC[C@H](Nc3ccc(-n4nccc(Cl)c4=O)cn3)C2)nn1` [Example 221, 4-Chloro-2-(6-(((1S,3S)-3-((6-methyl-1,2,4-triazin-3-yl)amino)cyclopentyl)amino)pyridin-3-yl)pyridazin-3(2H)-one], the Kd was found to be 1.7 nM.
As for `O=C(NC1COC1)c1cnc(N[C@H]2CC[C@H](Nc3ccc(-n4ccccc4=O)cn3)C2)nn1` [Example 70, N-(Oxetan-3-yl)-3-(((1S,3S)-3-((2-oxo-2H-[1,3′-bipyridin]-6′-yl)amino)cyclopentyl)amino)-1,2,4-triazine-6-carboxamide], the figure is 21 nM.
The result for `O=c1cccnn1-c1ccc(N[C@H]2CC[C@H](Nc3ncc(C4CC4)nn3)C2)nc1` [Example 118] reads 8.5 nM; that for `COc1cccn(-c2ccc(N[C@H]3CC[C@H](Nc4ncc(C)nn4)C3)nc2)c1=O` [Example 132, 3-Methoxy-6′-(((1S,3S)-3-((6-methyl-1,2,4-triazin-3-yl)amino)cyclopentyl)amino)-2H-[1,3′-bipyridin]-2-one], 1.5 nM.
As for `Cc1cnc(N[C@H]2CC[C@H](Nc3ccc(-n4cc(Cl)ccc4=O)cn3)C2)nn1` [Example 134, 5-Chloro-6′-(((1S,3S)-3-((6-methyl-1,2,4-triazin-3-yl)amino)cyclopentyl)amino)-2H-[1,3′-bipyridin]-2-one], the figure is 9.1 nM; as for `Cc1cccn(-c2ccc(N[C@H]3CC[C@H](Nc4ncc(C5CC5)nn4)C3)nc2)c1=O` [Example 66, 6′-(((1S,3S)-3-((6-Cyclopropyl-1,2,4-triazin-3-yl)amino)cyclopentyl)amino)-3-methyl-2H-[1,3′-bipyridin]-2-one], 1.5 nM; as for `O=c1ccc(Cl)cn1-c1ccc(N[C@H]2CC[C@H](Nc3ncc(C4CC4)nn3)C2)nc1` [Example 112, 5-Chloro-6′-(((1S,3S)-3-((6-cyclopropyl-1,2,4-triazin-3-yl)amino)cyclopentyl)amino)-2H-[1,3′-bipyridin]-2-one], 3.9 nM.
For `O=c1ccncn1-c1ccc(N[C@H]2CC[C@H](Nc3ncc(C4CC4)nn3)C2)nc1` [Example 114, 3-(6-(((1S,3S)-3-((6-Cyclopropyl-1,2,4-triazin-3-yl)amino)cyclopentyl)amino)pyridin-3-yl)pyrimidin-4(3H)-one], the Kd was 5.3 nM.
As for `Cn1c(=O)n(-c2ccc(N[C@H]3CC[C@H](Nc4ncc(C5CC5)nn4)C3)nc2)c2ncccc21` [Example 63, 3-(6-(((1S,3S)-3-((6-Cyclopropyl-1,2,4-triazin-3-yl)amino)cyclopentyl)amino)pyridin-3-yl)-1-methyl-1,3-dihydro-2H-imidazo[4,5-b]pyridin-2-one], the figure is 1.4 nM; as for `Cn1c(=O)n(-c2ccc(N[C@H]3CC[C@H](Nc4ncc(C5CC5)nn4)C3)nc2)c2ccc(C#N)cc21` [Example 117, 1-(6-(((1S,3S)-3-((6-Cyclopropyl-1,2,4-triazin-3-yl)amino)cyclopentyl)amino)pyridin-3-yl)-3-methyl-2-oxo-2,3-dihydro-1H-benzo[d]imidazole-5-carbonitrile], 0.9 nM.
As for `N#Cc1ccc(=O)n(-c2ccc(N[C@H]3CC[C@H](Nc4ncc(C5CC5)nn4)C3)nc2)c1` [Example 56, 6′-(((1S,3S)-3-((6-Cyclopropyl-1,2,4-triazin-3-yl)amino)cyclopentyl)amino)-2-oxo-2H-[1,3′-bipyridine]-5-carbonitrile], the figure is 7.4 nM; as for `CN1C(=O)CN(c2ccc(N[C@H]3CC[C@H](Nc4ncc(C5CC5)nn4)C3)nc2)C1=O` [Example 62, 1-(6-(((1S,3S)-3-((6-Cyclopropyl-1,2,4-triazin-3-yl)amino)cyclopentyl)amino)pyridin-3-yl)-3-methylimidazolidine-2,4-dione], 4.3 nM.
`Cc1cnc(N[C@H]2CC[C@H](Nc3ccc(-n4cc(C#N)ccc4=O)cn3)C2)nn1` [Example 128, 6′-(((1S,3S)-3-((6-Methyl-1,2,4-triazin-3-yl)amino)cyclopentyl)amino)-2-oxo-2H-[1,3′-bipyridine]-5-carbonitrile]: the Kd stood at 30 nM.
As for `C#CCNC(=O)c1cnc(N[C@H]2CC[C@H](Nc3ccc(-n4ccccc4=O)cn3)C2)nn1` [Example 69, 3-(((1S,3S)-3-((2-Oxo-2H-[1,3′-bipyridin]-6′-yl)amino)cyclopentyl)amino)-N-(prop-2-yn-1-yl)-1,2,4-triazine-6-carboxamide], the figure is 12 nM; as for `O=c1c(C(F)(F)F)cccn1-c1ccc(N[C@H]2CC[C@H](Nc3ncc(C4CC4)nn3)C2)nc1` [Example 51, 6′-(((1S,3S)-3-((6-Cyclopropyl-1,2,4-triazin-3-yl)amino)cyclopentyl)amino)-3-(trifluoromethyl)-2H-[1,3′-bipyridin]-2-one], 0.9 nM.
The result for `Cc1cnc(N[C@H]2CC[C@H](Nc3ccc(-n4c(=O)n(C)c5ccc(C#N)cc54)cn3)C2)nn1` [Example 210, 1-Methyl-3-(6-(((1S,3S)-3-((6-methyl-1,2,4-triazin-3-yl)amino)cyclopentyl)amino)pyridin-3-yl)-2-oxo-2,3-dihydro-1H-benzo[d]imidazole-5-carbonitrile] reads 0.6 nM; that for `O=c1ccccn1-c1ccc(N[C@H]2CC[C@H](Nc3ncc(C4CC4)nn3)C2)nc1` [Example 50, 6′-(((1S,3S)-3-((6-Cyclopropyl-1,2,4-triazin-3-yl)amino)cyclopentyl)amino)-2H-[1,3′-bipyridin]-2-one], 9.8 nM.
